Where a name gives a salt, the structure may show the parent alone.
How the values were obtained:
[1] = Anti-antiduretic water diuretic activity in vivo; conditions: oral, male SD-rats, first 2 hours, vs control group; read-out: ED3 (oral dose required to increase the amount of urine excreted for the first 2 hours)
Procedure: Test-4: Anti-antiduretic water diuretic/activity in vivo
The test compound of the present invention was dissolved in polyethylene glycol 400 or water or suspended in 5% gum arabic aqueous solution, and the mixture was orally administered by force to male SD-rats (body weight: 300 to 400 g) under untreated and unrestrained. After administration the rats were kept in a metabolism cage and the amount of urine spontaneously excreted by the rats was measured at 2 hours' interval, during which the rats could freely be given feed and water.
In the cotrol group, a solvent was administered instead of a test compound solution (or suspension).
The test results are expressed as ED3, which is the oral dose of the test compound which is required to increase the amount of the urine excreted from the rat in the test compound-treated group for the first 2 hours by time based on the amount of urine excreted from the rat for the first 2 hours in the control group.

[2] = test system: increase in the diastolic pressure caused by vasopressin; assay: Vasopressin antagonistic activity in vivo; conditions: Rattus norvegicus; oral, awake male SD-rats, vasopressin 30 mU/kg i.v.; read-out: ID50 (oral dose required to achieve 50% inhibitory effect on increase in diastolic pressure)
Procedure: Test-3: Vasopressin antagonistic activity in vivo
In order to test the vasopressin antagonistic activity of the compound of the present invention when admistered orally to rats under awaking, the following experiment was conducted. Cannulas were inserted into the aorta abdominalis and the carotid arteries of male SD-rats (body weight: 300-450 g) under pentobarbital-anesthetization. A few days thereafter, vasopressin (30 mU/kg) was administered intravenously to the rats under awaking with measuring the blood pressure at the cannula inserted into the arorta abdominalis by a piezo-electric transducer. The test compound was dissolved in polyethylene glycol or water, or suspended in 5% gum arabic solution, and orally administered by force to the rats.
The increase in the diastolic pressure of the rat was periodically mesured at 30 minutes' interval after the administration of vasopressin for 8 hours. The rate of inhibitory effect (%) of the test compound on the increase in the diastolic pressure caused by vasopressin (30 mU/kg) was calculated based on the increase in the diastolic pressure when vasopressin (30 mU/kg) was intravenously administered without a test compound.
The test result is expressed as ID50 value, which is the oral dose of the test compound required to achieve the inhibitory effect in the rate of 50% and is shown in Table 158 as follows: […]

[3] = target: T1, V1 Recepter (rat liver plasma membrane preparations) (Rattus norvegicus, UniProt P30560); assay: V1 Recepter binding assay; conditions: [3H]-Arg-vasopressin 2×10^-10 M, 37° C., 10 minutes, pH 8.0, rat liver plasma membrane
T1 construct: rat liver plasma membrane preparations; from tissue; host or cells: rat liver plasma membranes
T1 sequence (P30560 whole entry): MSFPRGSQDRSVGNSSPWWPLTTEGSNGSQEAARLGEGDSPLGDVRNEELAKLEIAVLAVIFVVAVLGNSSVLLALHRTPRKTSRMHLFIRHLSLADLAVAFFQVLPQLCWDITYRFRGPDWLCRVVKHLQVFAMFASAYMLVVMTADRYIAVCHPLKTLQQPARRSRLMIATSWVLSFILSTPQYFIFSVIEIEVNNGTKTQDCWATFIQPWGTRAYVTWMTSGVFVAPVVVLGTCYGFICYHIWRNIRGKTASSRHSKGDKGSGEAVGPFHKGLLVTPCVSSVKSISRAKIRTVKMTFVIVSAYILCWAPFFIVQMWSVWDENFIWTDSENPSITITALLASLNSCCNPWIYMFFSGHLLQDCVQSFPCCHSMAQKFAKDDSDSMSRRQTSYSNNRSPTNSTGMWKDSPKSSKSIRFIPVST
In short: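 Rat liver plasma membranes incubated with [3H]-Arg-vasopressin (2×10^-10 M) and compound (10^-8 to 10^-4 M) for 10 min at 37° C in Tris-HCl pH 8.0 with MgCl2, EDTA, BSA. Bound label separated by glass-fibre filtration, scintillation counted; nonspecific binding with 10^-6 M vasopressin; IC50 reported.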

[4] = target: T2, V2 Recepter (rat kidney plasma membrane preparations) (Rattus norvegicus, UniProt Q00788); assay: V2 Recepter binding assay; conditions: [3H]-Arg-vasopressin 4×10^-10 M, 4° C., pH 8.0, rat kidney plasma membrane
T2 construct: rat kidney plasma membrane preparations; from tissue; host or cells: rat kidney plasma membranes
T2 sequence (Q00788 whole entry): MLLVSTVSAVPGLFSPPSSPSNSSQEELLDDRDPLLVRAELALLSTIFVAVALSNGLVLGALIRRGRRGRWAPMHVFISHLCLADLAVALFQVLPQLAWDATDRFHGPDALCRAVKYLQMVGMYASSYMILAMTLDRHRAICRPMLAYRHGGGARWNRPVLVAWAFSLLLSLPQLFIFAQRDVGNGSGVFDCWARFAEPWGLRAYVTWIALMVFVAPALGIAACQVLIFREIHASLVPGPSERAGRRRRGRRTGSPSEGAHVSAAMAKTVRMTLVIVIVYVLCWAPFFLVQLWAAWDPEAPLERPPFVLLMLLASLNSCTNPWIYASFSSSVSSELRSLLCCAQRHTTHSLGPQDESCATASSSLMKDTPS
In short: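 Rat kidney plasma membranes incubated with [^3H]-Arg-vasopressin (4×10^-10 M) and test compound (10^-10 to 10^-5 M) for 3 h at 4 °C in 100 mM Tris-HCl pH 8.0 with 5 mM MgCl2, 1 mM EDTA, 0.1% BSA. Bound label by filtration and scintillation counting; nonspecific binding with 10^-6 M vasopressin; IC50 reported.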

[5] = target: T3, Oxytocin receptor (uterin muscle membrane preparation) (Rattus norvegicus, UniProt P70536); assay: Oxytocin receptor binding assay; conditions: [3H]-oxytocin 10^-9 M, 25°, one hour, pH 8.0, uterin muscle membrane, DES-treated
T3 construct: was homogenized, which was used as a membrane; from tissue; host or cells: uterine muscle membranes from diethylstilbestrol-treated animals
T3 sequence (P70536 1-388): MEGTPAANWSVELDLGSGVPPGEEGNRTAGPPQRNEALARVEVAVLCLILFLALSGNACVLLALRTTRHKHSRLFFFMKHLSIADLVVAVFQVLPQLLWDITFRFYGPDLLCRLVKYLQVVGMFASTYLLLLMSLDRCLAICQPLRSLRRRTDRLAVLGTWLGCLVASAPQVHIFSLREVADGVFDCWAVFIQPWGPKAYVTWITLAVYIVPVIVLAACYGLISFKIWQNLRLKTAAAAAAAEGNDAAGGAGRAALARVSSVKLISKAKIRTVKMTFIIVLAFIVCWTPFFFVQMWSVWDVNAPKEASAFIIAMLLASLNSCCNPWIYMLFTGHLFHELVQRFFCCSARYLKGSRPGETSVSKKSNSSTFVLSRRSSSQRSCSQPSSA
In short: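 Rat uterine membranes (0.2 mg; DES-primed day before) incubated 1 h at 25° with [3H]-oxytocin (10^-9 M) and compound (10^-9 to 10^-5 M) in 100 mM Tris-HCl pH 8.0, 5 mM MgCl2, 1 mM EDTA, 0.1% BSA. Filter-bound radioactivity counted; nonspecific with 5×10^-6 M oxytocin; IC50 reported.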

Compound	ED (3-fold) [1]	ED50 [2]	IC50 [3]	IC50 [4]	IC50 [5]
COc1cc(NC(=O)c2ccccc2C)ccc1C(=O)N1CCCC(CC(=O)N2CCN(C)CC2)c2cc(Cl)ccc21 (centres unmarked) [Example 63, 5-[(4-Methyl-1-piperazinyl)carbonylmethyl]-7-chloro-1-[2-methoxy-4-(2-methylbenzoylamino)benzoyl]-2,3,4,5-tetrahydro-1H-benzoazepine]	3.2 mg/kg	3.4 mg/kg	–	–	–
COc1cc(NC(=O)c2ccccc2Cl)ccc1C(=O)N1CCCC(CC(=O)NCCN(C)CCO)c2cc(Cl)ccc21 (centres unmarked) [Example 160, 5-{2-[N-(2-Hydroxyethyl)-N-methylamino]ethyl}-aminocarbonylmethyl-7-chloro-1-[2-methoxy-4-(2-chlorobenzoylamino)benzoyl]-2,3,4,5-tetrahydro-1H-benzoazepine]	–	–	6 nM	3.3 nM	84 nM
COc1cc(C(=O)N2CCCC(CC(=O)NCCN3CCOCC3)c3cc(Cl)ccc32)ccc1NC(=O)c1ccccc1Br (centres unmarked) [Example 164, 5-(2-Morpholinoethyl)aminocarbonylmethyl-7-chlorolo-[3-methoxy-4-(2-bromobenzoylamino)-benzoyl]-2,3,4,5-tetrahydro-1H-benzoazepine]	–	–	2.6 nM	8.5 nM	41 nM
COc1cc(C(=O)N2CCCC(OCC(=O)NCCN3CCCCC3)c3cc(Cl)ccc32)ccc1NC(=O)c1ccccc1Br (centres unmarked) [Example 167, 5-[2-(1-Piperidinyl)ethyl]aminocarbonylmethoxy-7-chloro-1-[3-methoxy-4-(2-bromobenzoylamino)benzoyl]-2,3,4,5-tetrahydro-1H-benzoazepine]	–	–	5.5 nM	8.5 nM	177 nM
COc1cc(C(=O)N2CCCC(OCC(=O)NCCN3CCOCC3)c3cc(Cl)ccc32)ccc1NC(=O)c1ccccc1Br (centres unmarked) [Example 168, 5-(2-Morpholinoethyl)aminocarbonylmethoxy-7-chloro-1-[3-methoxy-4-(2-bromobenzoylamino)benzoyl]-2,3,4,5-tetrahydro-1H-benzoazepine]	–	–	10 nM	19 nM	85 nM
C=CCNCCOC1CCCN(C(=O)c2ccc(NC(=O)c3ccccc3Cl)cc2OC)c2ccc(Cl)cc21 (centres unmarked) [Example 169, 5-(2-Allylaminoethoxy)-7-chloro-1-[2-methoxy-4-(2-chlorobenzoylamino)benzoyl]-2,3,4,5-tetrahydro-1H-benzoazepine.cndot.hydrochloride]	–	–	7 nM	5.6 nM	147 nM
C#CCNCCOC1CCCN(C(=O)c2ccc(NC(=O)c3ccccc3Cl)cc2OC)c2ccc(Cl)cc21 (centres unmarked) [Example 170, 5-(2-Propargylaminoethoxy)-7-chloro-1-[2-methoxy-4-(2-chlorobenzoylamino)benzoyl]-2,3,4,5-tetrahydro-1H-benzoazepine.cndot.hydrochloride]	–	–	24 nM	7 nM	416 nM
COc1cc(NC(=O)c2ccccc2Cl)ccc1C(=O)N1CCCC(OCCn2ccnc2)c2cc(Cl)ccc21 (centres unmarked) [Example 171, 5-[2-(1-Imidazolyl)ethoxy]-7-chloro-1-[2-methoxy-4-(2-chlorobenzoylamino)benzoyl]-2,3,4,5-tetrahydro-1H-benzoazepine]	–	–	110 nM	15 nM	317 nM
COc1cc(NC(=O)c2ccccc2Cl)ccc1C(=O)N1CCCC(OCCNS(C)(=O)=O)c2cc(Cl)ccc21 (centres unmarked) [Example 172, 5-(2-Methanesulfonylaminoethoxy)-7-chloro-1-[2-methoxy-4-(2-chlorobenzoylamino)benzoyl]-2,3,4,5-tetrahydro-1H-benzoazepine]	–	–	5 nM	3.9 nM	133 nM
